Assays:
HT-29 = test: Antiproliferative activity against human HT-29 cells after 48 hrs by MTT assay; format: functional, cell-based; conditions: HT-29, 48 h
NCI-H460 = test: Antiproliferative activity against human NCI-H460 cells after 48 hrs by MTT assay; format: functional, cell-based; conditions: NCI-H460, 48 h
MCF7 = test: Antiproliferative activity against human MCF7 cells after 48 hrs by MTT assay; format: functional, cell-based; conditions: MCF7, 48 h
[1] = target: Epidermal growth factor receptor (Homo sapiens, UniProt P00533); test: Inhibition of human EGFR preincubated for 10 mins followed by addition of FAM-labeled peptide and incubated for 10 mins by Caliper motility shift assay
[2] = target: Vascular endothelial growth factor receptor 2 (Homo sapiens, UniProt P35968); test: Inhibition of human VEGFR-2 preincubated for 10 mins followed by addition of FAM-labeled peptide and incubated for 10 mins by Caliper motility shift assay
Vascular endothelial growth factor receptor 2, sequence (P35968 whole entry): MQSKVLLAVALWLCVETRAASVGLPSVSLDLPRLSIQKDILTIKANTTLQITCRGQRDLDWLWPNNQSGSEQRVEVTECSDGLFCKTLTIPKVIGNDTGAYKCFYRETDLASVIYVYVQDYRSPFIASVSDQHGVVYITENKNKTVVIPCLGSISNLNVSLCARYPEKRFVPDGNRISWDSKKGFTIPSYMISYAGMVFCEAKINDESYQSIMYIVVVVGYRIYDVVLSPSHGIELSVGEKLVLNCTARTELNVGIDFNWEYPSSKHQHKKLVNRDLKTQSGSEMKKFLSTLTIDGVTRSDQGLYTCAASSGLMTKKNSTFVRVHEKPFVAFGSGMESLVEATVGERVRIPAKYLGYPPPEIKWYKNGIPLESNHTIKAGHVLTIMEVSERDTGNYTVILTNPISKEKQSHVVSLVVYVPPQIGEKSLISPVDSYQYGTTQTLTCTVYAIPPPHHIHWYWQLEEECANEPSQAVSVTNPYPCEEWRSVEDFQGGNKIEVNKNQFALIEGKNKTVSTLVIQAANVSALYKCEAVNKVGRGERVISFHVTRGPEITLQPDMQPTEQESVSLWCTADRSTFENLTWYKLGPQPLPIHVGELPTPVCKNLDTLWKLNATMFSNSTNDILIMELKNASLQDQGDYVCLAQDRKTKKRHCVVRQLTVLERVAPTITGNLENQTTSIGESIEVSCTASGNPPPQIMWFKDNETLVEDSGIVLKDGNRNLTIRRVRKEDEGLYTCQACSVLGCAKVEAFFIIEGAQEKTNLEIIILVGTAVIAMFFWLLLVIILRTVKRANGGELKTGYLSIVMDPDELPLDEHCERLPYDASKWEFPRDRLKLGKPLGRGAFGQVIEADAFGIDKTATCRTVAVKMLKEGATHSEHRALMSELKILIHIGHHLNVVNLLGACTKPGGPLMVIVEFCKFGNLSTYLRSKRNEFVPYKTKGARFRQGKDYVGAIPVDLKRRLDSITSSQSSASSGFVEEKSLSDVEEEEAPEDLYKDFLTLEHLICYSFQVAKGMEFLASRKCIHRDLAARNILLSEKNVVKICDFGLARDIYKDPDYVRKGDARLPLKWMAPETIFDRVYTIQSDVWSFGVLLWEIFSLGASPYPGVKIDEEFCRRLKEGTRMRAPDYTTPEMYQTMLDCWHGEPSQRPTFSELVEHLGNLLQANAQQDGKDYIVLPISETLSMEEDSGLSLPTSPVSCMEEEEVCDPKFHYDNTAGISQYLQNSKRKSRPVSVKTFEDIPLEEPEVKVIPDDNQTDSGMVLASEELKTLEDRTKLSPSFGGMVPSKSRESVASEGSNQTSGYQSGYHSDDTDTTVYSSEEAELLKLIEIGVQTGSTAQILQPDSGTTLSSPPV

Epidermal growth factor receptor, sequence (P00533 whole entry): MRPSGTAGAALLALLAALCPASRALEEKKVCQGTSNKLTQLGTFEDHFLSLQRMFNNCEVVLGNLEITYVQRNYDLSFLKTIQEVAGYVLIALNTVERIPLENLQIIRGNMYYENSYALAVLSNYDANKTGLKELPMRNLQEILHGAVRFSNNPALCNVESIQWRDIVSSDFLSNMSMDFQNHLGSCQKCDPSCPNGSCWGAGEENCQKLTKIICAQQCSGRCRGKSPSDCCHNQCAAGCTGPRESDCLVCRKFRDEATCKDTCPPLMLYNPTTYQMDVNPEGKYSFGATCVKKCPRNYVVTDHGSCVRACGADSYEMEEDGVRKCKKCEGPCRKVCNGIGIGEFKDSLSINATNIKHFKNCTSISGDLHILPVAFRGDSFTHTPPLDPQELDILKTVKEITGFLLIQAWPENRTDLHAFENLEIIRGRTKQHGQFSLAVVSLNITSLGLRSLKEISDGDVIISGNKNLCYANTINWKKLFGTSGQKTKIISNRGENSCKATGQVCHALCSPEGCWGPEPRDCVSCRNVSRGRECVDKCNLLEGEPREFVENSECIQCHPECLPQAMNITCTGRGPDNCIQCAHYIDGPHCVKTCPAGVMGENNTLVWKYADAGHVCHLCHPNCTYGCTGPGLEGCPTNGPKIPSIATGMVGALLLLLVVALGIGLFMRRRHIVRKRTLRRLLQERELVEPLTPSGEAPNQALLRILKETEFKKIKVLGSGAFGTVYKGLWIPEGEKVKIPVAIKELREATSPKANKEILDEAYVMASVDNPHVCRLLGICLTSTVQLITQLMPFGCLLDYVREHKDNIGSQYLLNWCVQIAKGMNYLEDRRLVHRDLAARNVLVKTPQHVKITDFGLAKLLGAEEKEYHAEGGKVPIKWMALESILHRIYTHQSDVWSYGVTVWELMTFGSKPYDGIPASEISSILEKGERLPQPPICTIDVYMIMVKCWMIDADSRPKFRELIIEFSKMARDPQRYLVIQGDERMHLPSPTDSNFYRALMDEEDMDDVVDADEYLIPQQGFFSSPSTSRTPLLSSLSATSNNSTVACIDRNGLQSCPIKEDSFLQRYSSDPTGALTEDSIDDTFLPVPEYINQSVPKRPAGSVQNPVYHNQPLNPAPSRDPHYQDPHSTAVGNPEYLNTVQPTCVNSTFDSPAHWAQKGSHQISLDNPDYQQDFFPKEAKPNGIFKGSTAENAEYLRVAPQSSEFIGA

| Structure (SMILES) | IC50 (HT-29) | IC50 (NCI-H460) | IC50 (MCF7) | IC50 [1] | IC50 [2] |
| --- | --- | --- | --- | --- | --- |
| COc1cc2c(Nc3ccc(NC(=O)c4ccc(Cl)cc4)cc3)ncnc2cc1OCc1ccccc1 | > 100 µM | 21.1 µM | 56.4 µM | > 10 µM | > 10 µM |
| COc1cc2c(Nc3ccc(NC(=O)c4ccc(Cl)cc4)cc3)ncnc2cc1OCCN1CCCCC1 | 5.12 µM | 16 µM | 0.1 µM | > 10 µM | 4.19 µM |
| COc1cc2c(Nc3ccc(NC(=O)c4ccc(C)cc4)cc3)ncnc2cc1OCc1ccccc1 | > 100 µM | 46.1 µM | > 100 µM | > 10 µM | > 10 µM |
| COc1cc2c(Nc3ccc(NC(=O)c4ccccc4)cc3)ncnc2cc1OCCN1CCCCC1 | 26.1 µM | 30 µM | 36 µM | 4.61 µM | 4.72 µM |
| COc1cc2c(Nc3ccc(NC(=O)c4ccccc4Cl)cc3)ncnc2cc1OCc1ccccc1 | > 100 µM | 28.2 µM | 78.2 µM | 0.73 µM | > 10 µM |
| COc1cc2c(Nc3ccc(NC(=O)c4cccc(Cl)c4)cc3)ncnc2cc1OCc1ccccc1 |  | 12.5 µM | > 100 µM | > 10 µM | > 10 µM |
| COc1cc2c(Nc3ccc(NC(=O)c4ccccc4)cc3)ncnc2cc1OCc1ccccc1 | 7.37 µM | 62.4 µM | > 100 µM | > 10 µM | > 10 µM |
| COc1ccc(C(=O)Nc2ccc(Nc3ncnc4cc(OCc5ccccc5)c(OC)cc34)cc2)cc1 | > 100 µM | 16.1 µM |  | > 10 µM | > 10 µM |

These reach a lower IC50 [2]. Values come first.

| IC50 (HT-29) | IC50 (NCI-H460) | IC50 (MCF7) | IC50 [1] | IC50 [2] | Structure (SMILES) |
| --- | --- | --- | --- | --- | --- |
| 21.3 µM |  | 7.8 µM | 0.23 µM | 2.99 µM | COc1cc2c(Nc3ccc(NC(=O)c4cccc(Cl)c4)cc3)ncnc2cc1OCCCN1CCOCC1 |
| 9.39 µM | 8 µM | 40.2 µM | 1.35 µM | 2.62 µM | COc1cc2c(Nc3ccc(NC(=O)c4ccc(Cl)cc4)cc3)ncnc2cc1OCCCN1CCOCC1 |
| 6.85 µM |  |  | > 10 µM | 2.48 µM | COc1cc2c(Nc3ccc(NC(=O)c4ccc(C)cc4)cc3)ncnc2cc1OCCN1CCCCC1 |
| 22.1 µM | 9.49 µM | 24.6 µM | 1.11 µM | 2.02 µM | COc1ccc(C(=O)Nc2ccc(Nc3ncnc4cc(OCCCN5CCN(C)CC5)c(OC)cc34)cc2)cc1 |
| 89.1 µM |  | 37.6 µM | 0.76 µM | 2 µM | COc1cc2c(Nc3ccc(NC(=O)c4ccc(C)cc4)cc3)ncnc2cc1OCCCN1CCOCC1 |
| 7.94 µM |  | 4.34 µM | 0.3 µM | 1.99 µM | COc1cc2c(Nc3ccc(NC(=O)c4cccc(Cl)c4)cc3)ncnc2cc1OCCN1CCCCC1 |
| 5.54 µM | 26 µM | 53.2 µM | 1.33 µM | 1.86 µM | COc1cc2c(Nc3ccc(NC(=O)c4ccc(Cl)cc4)cc3)ncnc2cc1OCCCN1CCN(C)CC1 |
| 5.27 µM | 12 µM | 4.41 µM | 0.15 µM | 1.81 µM | COc1cc2c(Nc3ccc(NC(=O)c4cccc(Cl)c4)cc3)ncnc2cc1OCCCN1CCN(C)CC1 |
| 23.2 µM | 36.2 µM | 15.4 µM | 0.02 µM | 1.71 µM | COc1cc2c(Nc3ccc(NC(=O)c4ccccc4Cl)cc3)ncnc2cc1OCCCN1CCN(C)CC1 |
| 17.1 µM | 11.9 µM | 24.9 µM | 0.69 µM | 0.87 µM | COc1cc2c(Nc3ccc(NC(=O)c4ccc(C)cc4)cc3)ncnc2cc1OCCCN1CCN(C)CC1 |
| 31.3 µM | 27.2 µM | 39 µM |  | 0.56 µM | COc1cc2c(Nc3ccc(NC(=O)c4ccccc4)cc3)ncnc2cc1OCCCN1CCN(C)CC1 |

— ChEMBL document CHEMBL3758083, “Design and discovery of 4-anilinoquinazoline-acylamino derivatives as EGFR and VEGFR-2 dual TK inhibitors” (Eur J Med Chem, 2016)
